Assay results from EP0229011A1, “Trisubstituted triazoles” (CIBA-GEIGY AG, priority 1986, dated 1987).

Columns and labels:
[1] = test system: durch Aluminiumoxidimplantation erzeugten fokalen Konvulsionen; assay: Focal convulsions produced by aluminium oxide implantation in the rhesus monkey; format: in vivo, Rhesusaffen; details: daily doses of 50 mg/kg p.o., over the whole 15-day treatment
Text: (§1) Die neuen Verbindungen besitzen wertvolle pharmakologische Eigenschaften, insbesondere eine ausgeprägte antikonvulsive Wirksamkeit mit neuartigem Wirkungsspektrum. Die ausgezeichnete antikonvulsive Wirksamkeit der erfindungsgemäss bereitgestellten Verbindungen zeigt sich insbesondere an Primaten. […] Das neuartige Wirkungsspektrum der erfindungsgemässen Verbindungen kann beispielsweise durch ihr Verhalten in den nachstehenden pharmakologischen und biochemischen Epilepsiemodellen charakterisiert werden: • 1) Schutzwirkung gegen Elektroschock-induzierte Konvulsionen (Maus, Ratte): deutliche Aktivität in Dosen ab etwa 30 mg/kg p.o., für z.B. 5-Amino-1-(4-hexyl)-1M-1,2,3-triazol-4-carboxamid ED₅₀ = 100 mg/kg p.o. (Maus) bzw. […] Wirkung auf die GABA-Neuro-transmission und kein nachweisbarer Einfluss auf den GABA-Kata-bolismus; • 6) Kindling-Epilepsiemodell (Ratte): die Entwicklung sowohl der Nachentladung als auch der Symptomatologie wird stark verlangsamt.

Metrazol-Antagonismus = assay: Metrazol antagonism in the mouse; format: in vivo; details: po, Maus, read-out: ED₅₀
Text: as §1

[2] = test system: Elektroschock-induzierte Konvulsionen; assay: Protection against electroshock-induced convulsions (mouse); format: in vivo; details: po, Maus, read-out: ED₅₀
Text: as §1

[3] = test system: Elektroschock-induzierte Konvulsionen; assay: Protection against electroshock-induced convulsions (rat); format: in vivo; details: po, Ratte, read-out: ED₅₀
Text: as §1

[4] = test system: experimentellen Strychninkrampf; assay: Protection against experimental strychnine convulsions; format: in vivo, Maus; details: Mus musculus, po, read-out: ED₅₀
Text: as §1

[5] = test system: Picrotoxin-induzierte Konvulsionen; assay: Protection against picrotoxin-induced convulsions; format: in vivo; details: Maus, doses up to and including 300 mg/kg p.o.
Text: as §1

With `CCCC(CCC)n1nnc(C(N)=O)c1N` [Beispiel 1, 5-Amino-1-(4-heptyl)-1H-1,2,3-triazol-4-carboxamid] the “Anzahl der fokalen Konvulsionen” value [1] was “starke Abnahme” and the “Intensität der fokalen Konvulsionen” value [1] was “starke Abnahme”.
Work on `CCCC(CC)n1nnc(C(N)=O)c1N` (stereo not shown) [5-Amino-1-(4-hexyl)-1H-1,2,3-triazol-4-carboxamid] yielded an ED50 (Metrazol-Antagonismus) of 210 mg/kg, an ED50 [2] of 100 mg/kg and an ED50 [3] of 50 mg/kg. For the same compound, the ED50 [4] was 300 mg/kg and the “Schutzwirkung gegen Picrotoxin-induzierte Konvulsionen” value [5] was “keine Wirkung feststellbar”.
